Tested on: chronic obstructive pulmonary disease-model animal
Assay: Drug efficacy evaluation in the chronic obstructive pulmonary disease-model animal (change of respiratory function)
[1] = 10 mg/kg orally 1 hour before cigarette solution and LPS solution, guinea-pig, average values of 6 animals

## Cn1c(=O)c2[nH]cnc2n(C)c1=O [Theophylline, theophylline]
[1]
  Peak expiratory flow: 19.0 mL/s
  Respiratory minute rate: 124 breaths/min
  Respiratory minute volume: 457 mL/min
  Tidal volume: 3.7 mL
10 mg/kg orally, COPD-model guinea-pig
  Effect on respiration function (in words): improvement effect of respiration function
